Data published in patent US10787442B2, “Modulators of indoleamine 2,3-dioxygenase” (GLAXOSMITHKLINE INTELLECTUAL PROPERTY DEVELOPMENT LIMITED, priority 2016, dated 2020).

How the values were obtained:
Type in all cases: cell-based
[1] = tested on: human peripheral blood mononuclear cells (PBMC); test: PBMC cytotoxicity assay (CellTiter-Glo); details: cytotoxicity in stimulated PBMC, recorded as pCC50
[2] = target: indoleamine 2, 3-dioxygenase (IDO1) (Homo sapiens, UniProt P14902); test: IDO1 HeLa RapidFire MS Assay (kynurenine by mass spectrometry); details: HeLa cells stimulated with IFN-γ, 2 days; recorded as pIC50; read-out: IDO1 HeLa PXC50 (converted)
Chain of indoleamine 2, 3-dioxygenase (IDO1) (P14902 whole entry): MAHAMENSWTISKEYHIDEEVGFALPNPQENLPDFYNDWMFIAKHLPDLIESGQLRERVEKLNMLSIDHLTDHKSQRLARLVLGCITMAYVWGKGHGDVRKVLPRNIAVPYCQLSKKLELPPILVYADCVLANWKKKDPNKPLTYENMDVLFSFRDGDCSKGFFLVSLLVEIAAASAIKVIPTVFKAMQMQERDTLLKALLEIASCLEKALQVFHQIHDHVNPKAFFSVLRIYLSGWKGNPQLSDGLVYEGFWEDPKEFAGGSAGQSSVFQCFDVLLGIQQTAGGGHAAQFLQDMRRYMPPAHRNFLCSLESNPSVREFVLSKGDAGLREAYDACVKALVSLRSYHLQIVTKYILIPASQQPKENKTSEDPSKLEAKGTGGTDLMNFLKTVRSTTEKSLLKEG
Procedure: IDO1 HeLa RapidFire MS Assay
(§1) Compounds of the present invention were tested via high-throughput cellular assays utilizing detection of kynurenine via mass spectrometry and cytotoxicity as end-points. […] Compounds with IDO1 inhibitory properties decreased the amount of kynurenine produced by the cells via the tryptophan catabolic pathway. Cellular toxicity due to the effect of compound treatment was measured using CellTiter-Glo® reagent (CTG) (Promega Corporation, Madison, Wis.), which is based on luminescent detection of ATP, an indicator of metabolically active cells.
(§2) In preparation for the assays, test compounds were serially diluted 3-fold in DMSO from a typical top concentration of 1 mM or 5 mM and plated at 0.5 μL in 384-well, polystyrene, clear bottom, tissue culture treated plates with lids (Greiner Bio-One, Kremsmünster, Austria) to generate 11-point dose response curves. Low control wells (0% kynurenine or 100% cytotoxicity) contained either 0.5 μL of DMSO in the presence of unstimulated (−IFN-γ) HeLa cells for the mass spectrometry assay or 0.5 μL of DMSO in the absence of cells for the cytotoxicity assay, and high control wells (100% kynurenine or 0% cytotoxicity) contained 0.5 μL of DMSO in the presence of stimulated (+IFN-γ) HeLa cells for both the mass spectrometry and cytotoxicity assays.
(§3) Frozen stocks of HeLa cells were washed and recovered in DMEM high glucose medium with HEPES (Thermo Fisher Scientific, Inc., Waltham, Mass.) supplemented with 10% v/v certified fetal bovine serum (FBS) (Thermo Fisher Scientific, Inc., Waltham, Mass.), and 1× penicillin-streptomycin antibiotic solution (Thermo Fisher Scientific, Inc., Waltham, Mass.). The cells were diluted to 100,000 cells/mL in the supplemented DMEM medium. 50 μL of either the cell suspension, for the mass spectrometry assay, or medium alone, for the cytotoxicity assay, were added to the low control wells, on the previously prepared 384-well compound plates, resulting in 5,000 cells/well or 0 cells/well respectively. IFN-γ was added to the remaining cell suspension at a final concentration of 10 nM, and 50 μL of the stimulated cells were added to all remaining wells on the 384-well compound plates. The plates, with lids, were then placed in a 37° C., 5% CO2 humidified incubator for 2 days.
(§4) Following incubation, the 384-well plates were removed from the incubator and allowed to equilibrate to room temperature for 30 minutes. For the cytotoxicity assay, CellTiter-Glo® was prepared according to the manufacturer's instructions, and 10 μL were added to each plate well. After a twenty minute incubation at room temperature, luminescence was read on an EnVision® Multilabel Reader (PerkinElmer Inc., Waltham, Mass.). For the mass spectrometry assay, 10 μL of supernatant from each well of the compound-treated plates were added to 40 μL of acetonitrile, containing 10 μM of an internal standard for normalization, in 384-well, polypropylene, V-bottom plates (Greiner Bio-One, Kremsmünster, Austria) to extract the organic analytes. Following centrifugation at 2000 rpm for 10 minutes, 10 μL from each well of the acetonitrile extraction plates were added to 90 μL of sterile, distilled H2O in 384-well, polypropylene, V-bottom plates for analysis of kynurenine and the internal standard on the RapidFire 300 (Agilent Technologies, Santa Clara, Calif.) and 4000 QTRAP MS (SCIEX, Framingham, Mass.). MS data were integrated using Agilent Technologies' RapidFire Integrator software, and data were normalized for analysis as a ratio of kynurenine to the internal standard.

[3] = tested on: human epithelial HeLa cells; test: HeLa cytotoxicity assay (CellTiter-Glo); details: cytotoxicity in stimulated HeLa cells, recorded as pCC50
Procedure: as §1, §2, §3, §4

Compound | PBMC_TOX PXC50 [1] | IC50 [2] [nM] | HELA_IDO1_TOX_PXC50 [3]
CC(C)CN(CC(C)C)c1ncc(C(C)CC(=O)O)cc1Nc1nc(C(F)(F)F)ns1 (stereo not drawn) [Example 1, 3-(6-(diisobutylamino)-5-((3-(trifluoromethyl)-1,2,4-thiadiazol-5-yl)amino)pyridin-3-yl)butanoic acid] | <5.0 | 10 | <5
CC(C)CN(c1ncc(C(C)CC(=O)O)cc1Nc1ccc(C(F)(F)F)cn1)C1CCOCC1 (stereo not drawn) [Example 2, 3-(6-(isobutyl(tetrahydro-2H-pyran-4-yl)amino)-5-((5-(trifluoromethyl)pyridin-2-yl)amino)pyridin-3-yl)butanoic acid] | <5.0 | 10 | <5
CC(C)CN(c1ncc([C@H](C)CC(=O)O)cc1Nc1ccc(Cl)nc1)C1CCOCC1 [Example 4, (R)-3-(5-((6-chloropyridin-3-yl)amino)-6-(isobutyl(tetrahydro-2H-pyran-4-yl)amino)pyridin-3-yl)butanoic acid] | <5.0 | 10 | <5
CC(C)CN(c1ncc([C@H](C)CC(=O)O)cc1Nc1cnc(Cl)nc1)C1CCOCC1 [Example 5, (R)-3-(5-((2-chloropyrimidin-5-yl)amino)-6-(isobutyl(tetrahydro-2H-pyran-4-yl)amino)pyridin-3-yl)butanoic acid] | <5.0 | 15.8 | <5
CC(C)CN(c1ncc([C@H](C)CC(=O)O)cc1Nc1ccc(Cl)c(F)n1)C1CCOCC1 [Example 7, (R)-3-(5-((5-chloro-6-fluoropyridin-2-yl)amino)-6-(isobutyl(tetrahydro-2H-pyran-4-yl)amino)pyridin-3-yl)butanoic acid] | <5.0 | 12.6 | <5
CC(C)CN(c1ncc([C@H](C)CC(=O)O)cc1Nc1nc(C(F)(F)F)ns1)C1CC(F)(F)C1 [Example 20, (R)-3-(6-((3,3-difluorocyclobutyl)(isobutyl)amino)-5-((3-(trifluoromethyl)-1,2,4-thiadiazol-5-yl)amino)pyridin-3-yl)butanoic acid] | <5.0 | 12.6 | <5
CC(C)CN(c1ncc(-c2ccccc2C(=O)O)cc1Nc1nc(C(F)(F)F)ns1)C1CCOCC1 [Example 29, 2-(6-(isobutyl(tetrahydro-2H-pyran-4-yl)amino)-5-((3-(trifluoromethyl)-1,2,4-thiadiazol-5-yl)amino)pyridin-3-yl)benzoic acid] | <5.0 | 15.8 | <5
CC(C)CN(c1ncc([C@H](C)CC(=O)O)cc1Nc1nc(Cl)ns1)C1CCC(F)(F)CC1 [Example 30, (R)-3-(5-((3-chloro-1,2,4-thiadiazol-5-yl)amino)-6-((4,4-difluorocyclohexyl)(isobutyl)amino)pyridin-3-yl)butanoic acid] | <5.0 | 39.8 | <5
CC(C)CN(c1ncc(C(C)CC(=O)O)cc1Nc1nc(C(F)(F)F)ns1)C1CCOCC1 (stereo not drawn) [Example 31, 3-{6-[(2-methylpropyl)(oxan-4-yl)amino]-5-{[3-(trifluoromethyl)-1,2,4-thiadiazol-5-yl]amino}pyridin-3-yl}butanoic acid] | <5.0 | 5.01 | <5
CC(C)CN(CC(C)C)c1ncc(C(C)CC(=O)O)cc1Nc1nc(Cl)ns1 (stereo not drawn) [Example 32, 3-{6-[bis(2-methylpropyl)amino]-5-[(3-chloro-1,2,4-thiadiazol-5-yl)amino]pyridin-3-yl}butanoic acid] | <5.0 | 631 | <5
CC(C)CN(c1ncc(C(C)CC(=O)O)cc1Nc1ccc(C#N)cn1)C1CCOCC1 (stereo not drawn) [Example 33, 3-{5-[(5-cyanopyridin-2-yl)amino]-6-[(2-methylpropyl)(oxan-4-yl)amino]pyridin-3-yl}butanoic acid] | <5.0 | 20 | <5
